Where two headings read alike, the source gives them in different places.
Columns and labels:
PSMA [1] = target: T1, PSMA (Homo sapiens, UniProt Q04609); set-up: method as in PMID 36168623; settings: LNCaP cells; cited from earlier work
T1 construct: host or cells: LNCaP prostate cancer cells

PSMA [2] = target: T1, PSMA; assay: In vitro competition binding assay, LNCaP cells, [^18F]DCFPyL as radioligand
Description: The LNCaP cells obtained from ATCC (via Cedarlane, Burlington, Canada) were cultured in RPMI 1640 medium supplemented with 10% FBS, penicillin (100 U/mL) and streptomycin (100 μg/mL) at 37 °C in a Panasonic Healthcare (Tokyo, Japan) MCO-19AIC humidified incubator containing 5% CO2. The cells were confirmed pathogen free by the IMPACT Rodent Pathogen Test (IDEXX BioAnalytics). Cells grown to 80-90% confluence were then washed with sterile PBS and collected after trypsinization. The cell concentration was counted in triplicate using a hemocytometer and a manual laboratory counter.
In vitro competition binding assays were conducted as previously reported using LNCaP prostate cancer cells and [^18F]DCFPyL as the radioligand [10]-[12],[14]. Briefly, LNCaP cells (400,000/well) were plated onto a 24-well poly-D-lysine coated plate for 48 h. Growth media was removed and replaced with HEPES buffered saline (50 mM HEPES, pH 7.5, 0.9% sodium chloride) and the cells were incubated for 1 h at 37 °C. [^18F]DCFPyL (0.1 nM) was added to each well (in triplicate) containing various concentrations (0.5 mM - 0.05 nM) of tested ligands. Non-specific binding was determined in the presence of 10 µM non-radiolabeled DCFPyL. The assay mixtures were further incubated for 1 h at 37 °C with gentle agitation. Then, the buffer and hot ligand were removed, and cells were washed twice with cold HEPES buffered saline. To harvest the cells, 400 µL of 0.25% trypsin solution was added to each well. Radioactivity was measured on an automatic gamma counter. Nonlinear regression analyses and Ki calculations were performed using the GraphPad Prism 7 software.

T1 sequence (Q04609 whole entry): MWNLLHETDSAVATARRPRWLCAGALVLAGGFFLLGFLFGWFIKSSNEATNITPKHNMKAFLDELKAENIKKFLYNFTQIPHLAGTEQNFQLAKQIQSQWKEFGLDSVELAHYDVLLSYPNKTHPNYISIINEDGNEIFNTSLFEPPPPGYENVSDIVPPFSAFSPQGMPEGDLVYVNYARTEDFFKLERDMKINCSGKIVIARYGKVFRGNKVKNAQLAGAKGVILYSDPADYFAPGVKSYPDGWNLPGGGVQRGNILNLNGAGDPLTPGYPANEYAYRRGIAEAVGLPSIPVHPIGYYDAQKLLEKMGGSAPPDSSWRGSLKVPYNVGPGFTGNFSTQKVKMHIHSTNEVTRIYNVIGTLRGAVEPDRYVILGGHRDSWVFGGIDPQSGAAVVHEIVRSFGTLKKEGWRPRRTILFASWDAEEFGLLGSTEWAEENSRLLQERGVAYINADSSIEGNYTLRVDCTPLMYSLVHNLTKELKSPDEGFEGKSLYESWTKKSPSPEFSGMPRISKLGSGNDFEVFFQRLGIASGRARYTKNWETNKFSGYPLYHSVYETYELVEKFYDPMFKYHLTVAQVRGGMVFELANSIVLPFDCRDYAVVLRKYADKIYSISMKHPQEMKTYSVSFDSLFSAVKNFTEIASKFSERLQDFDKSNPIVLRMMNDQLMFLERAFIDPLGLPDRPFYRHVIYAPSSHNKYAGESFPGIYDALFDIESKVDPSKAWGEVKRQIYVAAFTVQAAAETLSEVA

Structure (SMILES)	Ki (PSMA [1])	Ki (PSMA [2])
O=C([O-])CN1CCN(CC(=O)[O-])CCN(CC(=O)NCC2CCC(C(=O)NC(Cc3c4ccccc4cc4ccccc34)C(=O)NCCCCC(NC(=O)NC(CCCC(=O)O)C(=O)O)C(=O)O)CC2)CCN(CC(=O)[O-])CC1.[Ga+3] (stereo not shown) [Ga-HTK03149]	6.99 ± 0.8 nM	–
O=C([O-])CN1CCN(CC(=O)[O-])CCN(CC(=O)NCC2CCC(C(=O)NC(Cc3c4ccccc4cc4ccccc34)C(=O)NCCCCC(NC(=O)NC(CSCC(=O)O)C(=O)O)C(=O)O)CC2)CCN(CC(=O)[O-])CC1.[Ga+3] (stereo not shown) [Ga-HTK03177]	–	5 ± 2.4 nM
O=C([O-])CN1CCN(CC(=O)[O-])CCN(CC(=O)NCC2CCC(C(=O)NC(Cc3c4ccccc4cc4ccccc34)C(=O)NCCCCC(NC(=O)NC(COCC(=O)O)C(=O)O)C(=O)O)CC2)CCN(CC(=O)[O-])CC1.[Ga+3] (stereo not shown) [Ga-HTK03187]	–	10.6 ± 2 nM
COc1ccc(CCCC(=O)NCC(=O)N[C@@H](CCCCNC(=O)CN2CCN(CC(=O)[O-])CCN(CC(=O)[O-])CCN(CC(=O)[O-])CC2)C(=O)NC[C@H]2CC[C@H](C(=O)N[C@@H](Cc3c4ccccc4cc4ccccc34)C(=O)NCCCC[C@H](NC(=O)N[C@@H](CCCC(=O)O)C(=O)O)C(=O)O)CC2)cc1.[Lu+3] [Lu-HTK03170]	–	1.6 ± 0.4 nM

From paper PMC10465233, “Lys-urea-Aad, Lys-urea-Cmc and Lys-urea-Cms as potential pharmacophores for the design of PSMA-targeted radioligands to reduce off-target uptake in kidneys and salivary glands” (Theranostics, 2023)
